Active and inactive are the calls of the source. No cut-off for these calls is given here.
How the values were obtained:
[1] = molecular target: Carbonic anhydrase 12 (Homo sapiens, UniProt O43570); test: Binding affinity to human recombinant CA12 assessed as inhibition constant incubated for 15 mins by phenol red dye based stopped flow CO2 hydration assay
[2] = molecular target: Carbonic anhydrase 9 (Homo sapiens, UniProt Q16790)
[3] = system: NCI/ADR-RES; test: Antiproliferative activity against human NCI/ADR-RES cells assessed as inhibition of cell growth measured after 48 hrs by sulforhodamine B assay; assay type: functional, cell-based
[4] = system: MCF7; test: Antiproliferative activity against human MCF7 cells assessed as inhibition of cell growth measured after 48 hrs by sulforhodamine B assay; assay type: functional, cell-based; conditions: MCF7, 48 h
[5] = system: OVCAR-8; test: Antiproliferative activity against human OVCAR-8 cells assessed as inhibition of cell growth measured after 48 hrs by sulforhodamine B assay; assay type: functional, cell-based; conditions: OVCAR-8, 48 h
[6] = molecular target: Tubulin (Homo sapiens) (UniProt P68371+Q9H4B7+P0DPH7+P68366+Q13509+Q71U36+P04350+Q3ZCM7+P07437+P68363+Q9BQE3+Q6PEY2+Q13885+Q9BVA1+Q9BUF5); test: Inhibition of tubulin polymerization (unknown origin) at 20 uM preincubated for 15 mins followed by GTP addition by spectrophotometric analysis; assay type: protein-complex assay
[7] = molecular target: Carbonic anhydrase 2 (Homo sapiens, UniProt P00918); test: Binding affinity to human recombinant CA2 assessed as inhibition constant incubated for 15 mins by phenol red dye based stopped flow CO2 hydration assay
[8] = system: SW-620; test: Antiproliferative activity against human SW620 cells assessed as inhibition of cell growth measured after 48 to 72 hrs in presence of 5-fluorouracil by XTT assay; assay type: functional, cell-based
[9] = system: HCT-116; test: Antiproliferative activity against human HCT-116 cells assessed as inhibition of cell growth measured after 48 to 72 hrs in presence of 5-fluorouracil by MTT assay; assay type: functional, cell-based
[10] = system: SW480; test: Antiproliferative activity against human SW480 cells assessed as inhibition of cell growth measured after 48 to 72 hrs in presence of 5-fluorouracil by XTT assay; assay type: functional, cell-based
[11] = system: HCT-116; test: Induction of apoptosis in human HCT-116 cells assessed as increase in cleaved PARP level upto 30 uM measured after 72 hrs by Western blotting analysis; assay type: functional, cell-based
[12] = system: MDCK; test: Cytotoxicity against MDCK cells assessed as reduction in cell viability at 1 to 100 nM incubated for 72 hrs in presence of doxorubicin by WST-1 assay; assay type: toxicity, cell-based, Canis lupus familiaris; conditions: dog, 0.1 µM, dose 1-100 nM
[13] = system: T-cell; test: Induction of apoptosis in human T-lymphocyte assessed as increase in cell death at 30 uM measured after 72 hrs by Annexin-V/propidium iodide staining based flow cytometric analysis relative to control; assay type: toxicity
[14] = system: HCT-116; test: Inhibition of Wnt/beta-catenin signalling pathway in LiCl stimulated human HCT-116 cells assessed as reduction in c-MYC level upto 30 uM incubated for 24 hrs by Western blotting analysis; assay type: cell-based
[15] = system: HT-29; test: Cytotoxicity against doxorubicin-sensitive human HT-29 cell assessed as reduction in cell viability at 1 to 100 nM incubated for 72 hrs by WST-1 assay; assay type: functional; conditions: dose 1-100 nM
[16] = molecular target: T1, ATP-dependent translocase ABCB1 (Homo sapiens, UniProt P08183); test: Inhibition of P-gp in doxorubicin-resistant human HT-29 cell assessed as increase in intracellular doxorubicin accumulation incubated for 72 hrs in presence of doxorubicin by spectrofluorimetric analysis; assay type: cell-based; conditions: 0.1 µM, dose 100 nM
T1 sequence (P08183 whole entry): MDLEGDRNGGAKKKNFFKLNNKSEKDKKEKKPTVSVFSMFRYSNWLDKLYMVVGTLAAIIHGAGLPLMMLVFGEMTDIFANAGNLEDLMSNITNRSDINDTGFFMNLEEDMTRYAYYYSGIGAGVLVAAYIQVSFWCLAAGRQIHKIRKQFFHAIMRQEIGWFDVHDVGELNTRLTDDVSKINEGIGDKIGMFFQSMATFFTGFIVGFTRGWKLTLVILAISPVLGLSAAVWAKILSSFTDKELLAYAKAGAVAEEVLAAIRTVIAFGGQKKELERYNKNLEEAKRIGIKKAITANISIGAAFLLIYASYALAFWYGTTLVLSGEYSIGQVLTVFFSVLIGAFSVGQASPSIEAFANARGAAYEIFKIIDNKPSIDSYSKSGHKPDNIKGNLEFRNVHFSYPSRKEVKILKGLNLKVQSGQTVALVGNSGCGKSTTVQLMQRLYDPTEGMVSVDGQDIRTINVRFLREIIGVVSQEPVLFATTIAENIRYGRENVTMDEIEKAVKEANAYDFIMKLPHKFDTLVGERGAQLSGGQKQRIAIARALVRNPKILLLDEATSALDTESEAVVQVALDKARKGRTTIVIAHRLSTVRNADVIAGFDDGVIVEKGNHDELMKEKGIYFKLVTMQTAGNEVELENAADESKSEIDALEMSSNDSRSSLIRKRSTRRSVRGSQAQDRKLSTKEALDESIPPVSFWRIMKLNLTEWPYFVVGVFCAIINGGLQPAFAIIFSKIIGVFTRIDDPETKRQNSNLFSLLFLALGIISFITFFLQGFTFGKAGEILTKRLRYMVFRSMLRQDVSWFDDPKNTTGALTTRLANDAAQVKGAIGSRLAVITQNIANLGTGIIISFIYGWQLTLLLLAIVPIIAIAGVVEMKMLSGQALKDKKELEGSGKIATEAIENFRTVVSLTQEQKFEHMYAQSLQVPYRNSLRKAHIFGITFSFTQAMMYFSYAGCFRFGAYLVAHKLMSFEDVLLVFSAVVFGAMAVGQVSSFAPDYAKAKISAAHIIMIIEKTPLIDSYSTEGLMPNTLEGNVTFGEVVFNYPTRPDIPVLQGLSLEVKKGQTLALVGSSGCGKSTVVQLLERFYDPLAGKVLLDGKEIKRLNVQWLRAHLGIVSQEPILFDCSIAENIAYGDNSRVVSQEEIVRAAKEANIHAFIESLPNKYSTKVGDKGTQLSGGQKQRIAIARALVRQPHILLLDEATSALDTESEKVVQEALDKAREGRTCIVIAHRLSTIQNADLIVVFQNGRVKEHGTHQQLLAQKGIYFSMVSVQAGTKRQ

[17] = system: T-cell; test: Induction of apoptosis in human T-lymphocyte assessed as late apoptotic cells at 30 uM measured after 72 hrs by Annexin-V/propidium iodide staining based flow cytometric analysis (reference value: 14%); assay type: toxicity
[18] = system: SW-620; test: Antiproliferative activity against human SW620 cells assessed as inhibition of cell growth measured after 48 to 72 hrs by XTT assay; assay type: functional, cell-based
[19] = system: HCT-116; test: Antiproliferative activity against human HCT-116 cells assessed as inhibition of cell growth measured after 48 to 72 hrs by MTT assay; assay type: functional, cell-based
[20] = molecular target: T1, ATP-dependent translocase ABCB1; test: Inhibition of P-gp ATPase activity in doxorubicin-resistant human HT-29 cell assessed as reduction in rate of ATP hydrolysis at 10 nM incubated for 3 hrs by spectrophotometric analysis; assay type: cell-based; conditions: 0.01 µM
[21] = system: HEK293T; test: Inhibition of Wnt/beta-catenin signalling pathway in LiCl stimulated HEK293T cells transfected with renilla luciferase and TOPFlash reporter gene incubated for 24 hrs by luminescence based analysis; assay type: cell-based; conditions: Homo sapiens, dose <= 30.0 µM
[22] = system: HCT-116; test: Induction of apoptosis in human HCT-116 cells assessed as increase in cleaved caspase-3 level upto 30 uM measured after 72 hrs by Western blotting analysis; assay type: functional, cell-based
[23] = system: HT-29; test: Cytotoxicity against doxorubicin-sensitive human HT-29 cell assessed as reduction in cell viability at 1 to 100 nM incubated for 72 hrs in presence of doxorubicin by WST-1 assay; assay type: functional, cell-based; conditions: dose 1-100 nM
[24] = system: MDA-MB-231; test: Antiproliferative activity against human MDA-MB-231 cells assessed as inhibition of cell growth at 0.1 to 30 uM measured after 72 hrs by propidium iodide staining based cytofluorimetric analysis; assay type: functional; conditions: dose 0.1-30 µM
[25] = system: MDCK-P-gp; test: Inhibition of P-gp in MDCK-P-gp cells assessed as effect on intracellular doxorubicin accumulation at 1 to 100 nM incubated for 72 hrs in presence of doxorubicin by […] assay; assay type: cell-based; conditions: Canis lupus familiaris, dose 1-100 nM
[26] = system: MDCK-P-gp; test: Inhibition of P-gp ATPase activity in MDCK-P-gp cells assessed as reduction in rate of ATP hydrolysis at 10 nM incubated for 3 hrs by spectrophotometric analysis; assay type: cell-based; conditions: Canis lupus familiaris
[27] = system: HCT-116; test: Inhibition of Wnt/beta-catenin signalling pathway in LiCl stimulated human HCT-116 cells assessed as reduction in beta-catenin level upto 30 uM incubated for 24 hrs by Western blotting analysis; assay type: cell-based
[28] = system: HCT-116; test: Inhibition of Wnt/beta-catenin signalling pathway in LiCl stimulated human HCT-116 cells assessed as reduction in Sal4 gene expression upto 30 uM incubated for 24 hrs by RT-PCR analysis; assay type: cell-based
[29] = system: HT-29; test: Cytotoxicity against doxorubicin-resistant human HT-29 cell assessed as reduction in cell viability incubated for 72 hrs in presence of doxorubicin by WST-1 assay; assay type: functional, cell-based; conditions: dose 1-100 nM
[30] = system: HT-29; test: Cytotoxicity against doxorubicin-resistant human HT-29 cell assessed as reduction in cell viability […] incubated for 72 hrs in presence of doxorubicin by WST-1 assay; assay type: functional, cell-based
[31] = system: BT-549; test: Antiproliferative activity against human BT-549 cells assessed as inhibition of cell growth at 0.1 to 30 uM measured after 72 hrs by propidium iodide staining based cytofluorimetric analysis; assay type: functional; conditions: dose 0.1-30 µM
[32] = system: SW480; test: Antiproliferative activity against human SW480 cells assessed as inhibition of cell growth measured after 48 to 72 hrs by XTT assay; assay type: functional, cell-based
[33] = system: HEK293T; test: Inhibition of Wnt/beta-catenin signalling pathway in LiCl stimulated HEK293T cells transfected with renilla luciferase and FOPFlash reporter gene upto 30 uM incubated for 24 hrs by luminescence based analysis; assay type: cell-based; conditions: Homo sapiens
[34] = system: MDCK; test: Cytotoxicity against MDCK cells assessed as reduction in cell viability at 1 to 100 nM incubated for 72 hrs by WST-1 assay; assay type: toxicity, cell-based, Canis lupus familiaris; conditions: dog, 0.1 µM, dose 1-100 nM
[35] = molecular target: T1, ATP-dependent translocase ABCB1; test: Inhibition of P-gp in human HT-29 cells assessed as effect on intracellular doxorubicin accumulation at 1 to 100 nM incubated for 72 hrs in presence of doxorubicin by spectrofluorimetric analysis; assay type: cell-based; conditions: dose 1-100 nM
[36] = Cytotoxicity against MDCK-P-gp cells assessed as reduction in cell viability incubated for 72 hrs in presence of doxorubicin by WST-1 assay; assay type: toxicity, cell-based, Canis lupus familiaris; conditions: dog, dose 1-100 nM
[37] = system: HCT-116; test: Inhibition of Wnt/beta-catenin signalling pathway in LiCl stimulated human HCT-116 cells assessed as reduction in […] gene expression upto 30 uM incubated for 24 hrs by RT-PCR analysis; assay type: cell-based
[38] = system: HT-29; test: Cytotoxicity against doxorubicin-resistant human HT-29 cell assessed as reduction in cell viability at 1 to 100 nM incubated for 72 hrs by WST-1 assay; assay type: functional; conditions: dose 1-100 nM
[39] = Cytotoxicity against MDCK-P-gp cells assessed as reduction in cell viability at 1 to 100 nM incubated for 72 hrs by WST-1 assay; assay type: toxicity, cell-based, Canis lupus familiaris; conditions: dog, 0.1 µM, dose 1-100 nM

Sequence of Carbonic anhydrase 12 (O43570 whole entry): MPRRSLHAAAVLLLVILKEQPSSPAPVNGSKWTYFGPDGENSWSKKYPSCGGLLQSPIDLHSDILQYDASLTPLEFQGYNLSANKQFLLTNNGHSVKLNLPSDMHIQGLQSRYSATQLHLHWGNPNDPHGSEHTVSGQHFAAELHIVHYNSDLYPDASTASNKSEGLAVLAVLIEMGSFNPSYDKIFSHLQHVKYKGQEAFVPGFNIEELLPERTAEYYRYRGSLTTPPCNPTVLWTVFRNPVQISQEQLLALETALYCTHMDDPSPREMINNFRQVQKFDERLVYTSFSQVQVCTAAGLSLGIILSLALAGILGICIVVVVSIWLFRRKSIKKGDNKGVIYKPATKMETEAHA

For `NS(=O)(=O)c1ccc(-n2cc(C(=O)c3ccccc3)c3ccccc32)cc1`, the Ki [1] was 0.052 µM and the Ki [2] was 0.0316 µM.
`COc1cc(C(=O)c2ccn(-c3ccc(S(N)(=O)=O)cc3)c2)cc(OC)c1OC` gave an IC50 [3] of 2.2 µM, an IC50 [4] of 3.9 µM and an IC50 [5] of 1.9 µM. The inhibition [6] was “inactive”, the Ki [7] was 0.0102 µM and the Ki [1] was 0.0115 µM. The Ki [2] was 0.0448 µM.
For `COc1cc(C(=O)c2cn(-c3ccc(S(N)(=O)=O)cc3)c3ccccc23)cc(OC)c1OC`, the IC50 [8] was 25.8 µM, the IC50 [9] was 14 µM and the IC50 [10] was 50.3 µM.
Work on `NS(=O)(=O)c1ccc(-n2cc(C(=O)c3ccccc3)c(-c3ccccc3)c2)cc1` yielded a Ki [1] of 0.0594 µM and a Ki [2] of 0.0386 µM.
In the case of `NS(=O)(=O)c1ccc(-n2ccc(C(=O)c3ccccc3)c2)cc1`, the Ki [1] is reported as 0.0471 µM and the Ki [2] is reported as 0.066 µM.
In the case of `COc1cc(C(=O)c2cn(-c3ccc(S(N)(=O)=O)cc3)cc2-c2ccccc2)cc(OC)c1OC`, the Activity [11] is reported as “Active”, the Activity [12] is reported as “Non-Toxic” and the Activity [13] is reported as 6%. For the same molecule, the inhibition [14] was “Active”, the IC50 [3] was 2.1 µM and the Activity [15] was >75%. The “inhibition (INH)” value [16] was “Dose-Dependent Effect”, the Activity [17] was 20% and the IC50 [4] was 1.9 µM. For the same molecule, the IC50 [18] was 23.8 µM, the IC50 [19] was 8.7 µM and the IC50 [5] was 1.9 µM. The “inhibition (INH)” value [20] was “Active”, the inhibition [21] was “Dose-Dependent Effect” and the Activity [22] was “Active”. The IC50 [8] was 37.3 µM, the Activity [23] was “Active” and the IC50 [9] was 17 µM. The Activity [24] was “Active”, the inhibition [25] was “inactive” and the inhibition [26] was “Active”. The inhibition [27] was “Active”, the inhibition [28] was “Active” and the Activity [29] was “Dose-Dependent Effect”. The Activity [30] was “Active”, the Activity [31] was “Active” and the IC50 [10] was 42.9 µM. The IC50 [32] was 17.7 µM, the inhibition [33] was “inactive” and the Activity [34] was > 75%. The “inhibition (INH)” value [35] was “Not Active”, the Activity [36] was “Dose-Dependent Effect” and the inhibition [37] was “Active”. The Activity [38] was >75% and the Activity [39] was > 75%.
With `COc1cccc2c1C(=O)c1c(O)c3c(c(O)c1C2=O)C[C@@](O)(C(=O)CO)C[C@@H]3O[C@H]1C[C@H](N)[C@H](O)[C@H](C)O1` [DOXORUBICIN] the Activity [15] was “Active”, the Activity [34] was “Toxic” and the Activity [38] was “inactive”. For the same molecule, the Activity [39] was “Non-Toxic”.
`Nc1ccc(C(=O)c2ccc(-c3ccc(S(N)(=O)=O)cc3)cc2)cc1` showed an EC50 [3] of 2.1 µM.

Reference: ChEMBL document CHEMBL5390260 (J Med Chem, 2023)
